Laboratory results reported in ChEMBL document CHEMBL1201862, “PubChem BioAssay data set” (2004).
Values belong to the compound of their own block, whether it stands above or below them. Activity calls are given as the source filed them.

What was measured:
[1] = biological target: Voltage-dependent T-type calcium channel subunit alpha-1H (Homo sapiens, UniProt O95180); assay type: functional;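 also: channel activity triggered by adding a high calcium stimulation buffer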
[2] = biological target: Trypsin (Sus scrofa, UniProt P00761); test: porcine trypsin inhibitors, dose response, selectivity assay for Rce1 protease inhibitor project, biochemical, quenched peptide fluorescence, cherry-pick (AID 488789)
[3] = biological target: Peroxisome proliferator-activated receptor gamma/Nuclear receptor coactivator 2 (Homo sapiens, UniProt P37231); test: (§1) TR-FRET dose response biochemical High Throughput Screening assay for agonists of the steroid receptor coactivator 2 (SRC-2) recruitment by the peroxisome proliferator-activated receptor gamma (PPAR gamma): non-selective agonists. [Related pubchem assays: 1297, 1032 ]; assay type: functional
[4] = biological target: Peroxisome proliferator-activated receptor gamma/Nuclear receptor coactivator 1 (Homo sapiens, UniProt P37231); test: as §1, with “1 (SRC-1)” for “2 (SRC-2)”, “assays (depositor defined):AID1300, AID1808, AID504735, AID631]” for “assays: 1297, 1032 ]”; assay type: protein assay
[5] = biological target: Peroxisome proliferator-activated receptor gamma/Nuclear receptor coactivator 3 (Homo sapiens, UniProt P37231); test: as §1, with “3 (SRC-3)” for “2 (SRC-2)”, “1301 (Confirmation screen.), 1048 (Primary screen.)]” for “1297, 1032 ]”; assay type: functional
[6] = biological target: Large T antigen (Simian virus 40, UniProt P03070); assay type: functional, Betapolyomavirus macacae;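 also: Confirmatory-stage PubChem screen for compounds that inhibit SV40 T antigen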
[7] = biological target: Cytochrome P450 2D6 (Homo sapiens, UniProt P10635);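 also: CYP2D6 member of a cytochrome P450 panel assay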
[8] = biological target: Cytochrome P450 2C9 (Homo sapiens, UniProt P11712)
[9] = biological target: DNA dC->dU-editing enzyme APOBEC-3G (Homo sapiens, UniProt Q9HC16); assay type: functional;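 also: Dose-response counterscreen measuring inhibition of APOBEC3G DNA deaminase activity, run while confirming APOBEC3A inhibitors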
[10] = biological target: DNA dC->dU-editing enzyme APOBEC-3A (Homo sapiens, UniProt P31941); test: Dose Response confirmation of small molecule APOBEC3A DNA Deaminase Inhibitors via a fluorescence-based single-stranded DNA deaminase assay. [Related pubchem assays (depositor defined):AID493011, AID493024]; assay type: functional
[11] = biological target: T1, Alkaline phosphatase, tissue-nonspecific isozyme (Homo sapiens, UniProt P05186); test: human TNAP enzyme inhibitors, SAR follow-up, biochemical, luminescent, dose response (AID 1056)
T1 sequence (P05186 whole entry): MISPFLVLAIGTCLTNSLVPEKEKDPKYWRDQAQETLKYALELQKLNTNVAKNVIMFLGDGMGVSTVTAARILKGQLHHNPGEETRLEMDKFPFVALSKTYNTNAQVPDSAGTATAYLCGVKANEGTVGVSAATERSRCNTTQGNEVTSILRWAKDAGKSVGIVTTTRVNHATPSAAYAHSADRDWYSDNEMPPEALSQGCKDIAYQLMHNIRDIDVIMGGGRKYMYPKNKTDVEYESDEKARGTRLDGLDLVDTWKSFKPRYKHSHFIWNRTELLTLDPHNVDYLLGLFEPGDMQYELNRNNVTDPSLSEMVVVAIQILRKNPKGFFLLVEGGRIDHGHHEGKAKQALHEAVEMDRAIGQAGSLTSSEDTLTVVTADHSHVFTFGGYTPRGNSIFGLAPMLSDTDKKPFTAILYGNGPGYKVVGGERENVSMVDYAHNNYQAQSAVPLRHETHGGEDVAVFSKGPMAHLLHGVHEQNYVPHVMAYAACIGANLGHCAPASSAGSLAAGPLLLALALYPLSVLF

[12] = HEp-2 cell cytotoxicity, dose response, cytotoxicity control for RSV inhibitor project, HTS (AID 2410); assay type: functional; conditions: human respiratory syncytial virus
[13] = biological target: Alkaline phosphatase, placental type (Homo sapiens, UniProt P05187); test: PLAP enzyme inhibitors, confirmation, biochemical, luminescence (AID 1512); assay type: functional
[14] = biological target: FAD-linked sulfhydryl oxidase ALR (Homo sapiens, UniProt P55789); test: inhibitors of human ALR sulfhydryl oxidase, dose response, biochemical, H2O2 detection, luminescence, cherry-pick (AID 493248)
[15] = cytotoxicity in HEK-293T cells, dose response, cytotoxicity control for BCR NF-kB inhibitor project, luminescence, B-cell screen hits (AID 489021); assay type: functional, cell-based;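 also: HEK-293T cells carrying an NF-kB luciferase reporter; cells exposed to compound for about 14 hours before viability readout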

DNA dC->dU-editing enzyme APOBEC-3G, sequence (Q9HC16 whole entry): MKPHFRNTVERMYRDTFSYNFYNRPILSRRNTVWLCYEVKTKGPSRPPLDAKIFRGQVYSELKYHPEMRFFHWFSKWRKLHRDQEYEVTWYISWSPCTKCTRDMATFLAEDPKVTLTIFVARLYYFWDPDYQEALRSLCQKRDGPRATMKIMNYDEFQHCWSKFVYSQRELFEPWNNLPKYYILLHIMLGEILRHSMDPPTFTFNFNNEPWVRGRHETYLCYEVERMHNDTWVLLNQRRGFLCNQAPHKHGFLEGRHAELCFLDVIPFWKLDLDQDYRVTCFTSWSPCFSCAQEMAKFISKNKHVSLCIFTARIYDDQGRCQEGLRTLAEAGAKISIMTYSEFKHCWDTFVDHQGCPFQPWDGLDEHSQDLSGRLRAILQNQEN
Alkaline phosphatase, placental type, sequence (P05187 whole entry): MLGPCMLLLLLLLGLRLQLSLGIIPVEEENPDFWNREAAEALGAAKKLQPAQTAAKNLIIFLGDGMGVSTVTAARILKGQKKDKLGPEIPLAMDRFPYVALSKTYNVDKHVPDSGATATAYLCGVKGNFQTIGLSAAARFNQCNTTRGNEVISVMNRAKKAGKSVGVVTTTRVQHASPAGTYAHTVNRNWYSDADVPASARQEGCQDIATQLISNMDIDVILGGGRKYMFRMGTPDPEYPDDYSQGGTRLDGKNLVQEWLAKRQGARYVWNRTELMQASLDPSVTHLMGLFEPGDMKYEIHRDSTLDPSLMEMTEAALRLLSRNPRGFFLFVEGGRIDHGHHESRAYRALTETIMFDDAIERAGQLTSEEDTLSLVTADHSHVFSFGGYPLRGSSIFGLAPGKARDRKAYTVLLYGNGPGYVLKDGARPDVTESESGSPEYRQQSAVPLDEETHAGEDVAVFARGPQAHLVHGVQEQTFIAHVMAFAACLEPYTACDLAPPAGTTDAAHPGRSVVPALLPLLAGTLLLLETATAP
DNA dC->dU-editing enzyme APOBEC-3A, sequence (P31941 whole entry): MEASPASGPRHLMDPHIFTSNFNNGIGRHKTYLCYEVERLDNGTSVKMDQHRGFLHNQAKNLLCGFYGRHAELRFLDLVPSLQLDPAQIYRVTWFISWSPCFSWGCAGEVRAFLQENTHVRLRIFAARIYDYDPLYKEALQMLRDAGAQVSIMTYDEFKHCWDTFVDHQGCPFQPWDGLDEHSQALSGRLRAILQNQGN
Voltage-dependent T-type calcium channel subunit alpha-1H, sequence (O95180 whole entry): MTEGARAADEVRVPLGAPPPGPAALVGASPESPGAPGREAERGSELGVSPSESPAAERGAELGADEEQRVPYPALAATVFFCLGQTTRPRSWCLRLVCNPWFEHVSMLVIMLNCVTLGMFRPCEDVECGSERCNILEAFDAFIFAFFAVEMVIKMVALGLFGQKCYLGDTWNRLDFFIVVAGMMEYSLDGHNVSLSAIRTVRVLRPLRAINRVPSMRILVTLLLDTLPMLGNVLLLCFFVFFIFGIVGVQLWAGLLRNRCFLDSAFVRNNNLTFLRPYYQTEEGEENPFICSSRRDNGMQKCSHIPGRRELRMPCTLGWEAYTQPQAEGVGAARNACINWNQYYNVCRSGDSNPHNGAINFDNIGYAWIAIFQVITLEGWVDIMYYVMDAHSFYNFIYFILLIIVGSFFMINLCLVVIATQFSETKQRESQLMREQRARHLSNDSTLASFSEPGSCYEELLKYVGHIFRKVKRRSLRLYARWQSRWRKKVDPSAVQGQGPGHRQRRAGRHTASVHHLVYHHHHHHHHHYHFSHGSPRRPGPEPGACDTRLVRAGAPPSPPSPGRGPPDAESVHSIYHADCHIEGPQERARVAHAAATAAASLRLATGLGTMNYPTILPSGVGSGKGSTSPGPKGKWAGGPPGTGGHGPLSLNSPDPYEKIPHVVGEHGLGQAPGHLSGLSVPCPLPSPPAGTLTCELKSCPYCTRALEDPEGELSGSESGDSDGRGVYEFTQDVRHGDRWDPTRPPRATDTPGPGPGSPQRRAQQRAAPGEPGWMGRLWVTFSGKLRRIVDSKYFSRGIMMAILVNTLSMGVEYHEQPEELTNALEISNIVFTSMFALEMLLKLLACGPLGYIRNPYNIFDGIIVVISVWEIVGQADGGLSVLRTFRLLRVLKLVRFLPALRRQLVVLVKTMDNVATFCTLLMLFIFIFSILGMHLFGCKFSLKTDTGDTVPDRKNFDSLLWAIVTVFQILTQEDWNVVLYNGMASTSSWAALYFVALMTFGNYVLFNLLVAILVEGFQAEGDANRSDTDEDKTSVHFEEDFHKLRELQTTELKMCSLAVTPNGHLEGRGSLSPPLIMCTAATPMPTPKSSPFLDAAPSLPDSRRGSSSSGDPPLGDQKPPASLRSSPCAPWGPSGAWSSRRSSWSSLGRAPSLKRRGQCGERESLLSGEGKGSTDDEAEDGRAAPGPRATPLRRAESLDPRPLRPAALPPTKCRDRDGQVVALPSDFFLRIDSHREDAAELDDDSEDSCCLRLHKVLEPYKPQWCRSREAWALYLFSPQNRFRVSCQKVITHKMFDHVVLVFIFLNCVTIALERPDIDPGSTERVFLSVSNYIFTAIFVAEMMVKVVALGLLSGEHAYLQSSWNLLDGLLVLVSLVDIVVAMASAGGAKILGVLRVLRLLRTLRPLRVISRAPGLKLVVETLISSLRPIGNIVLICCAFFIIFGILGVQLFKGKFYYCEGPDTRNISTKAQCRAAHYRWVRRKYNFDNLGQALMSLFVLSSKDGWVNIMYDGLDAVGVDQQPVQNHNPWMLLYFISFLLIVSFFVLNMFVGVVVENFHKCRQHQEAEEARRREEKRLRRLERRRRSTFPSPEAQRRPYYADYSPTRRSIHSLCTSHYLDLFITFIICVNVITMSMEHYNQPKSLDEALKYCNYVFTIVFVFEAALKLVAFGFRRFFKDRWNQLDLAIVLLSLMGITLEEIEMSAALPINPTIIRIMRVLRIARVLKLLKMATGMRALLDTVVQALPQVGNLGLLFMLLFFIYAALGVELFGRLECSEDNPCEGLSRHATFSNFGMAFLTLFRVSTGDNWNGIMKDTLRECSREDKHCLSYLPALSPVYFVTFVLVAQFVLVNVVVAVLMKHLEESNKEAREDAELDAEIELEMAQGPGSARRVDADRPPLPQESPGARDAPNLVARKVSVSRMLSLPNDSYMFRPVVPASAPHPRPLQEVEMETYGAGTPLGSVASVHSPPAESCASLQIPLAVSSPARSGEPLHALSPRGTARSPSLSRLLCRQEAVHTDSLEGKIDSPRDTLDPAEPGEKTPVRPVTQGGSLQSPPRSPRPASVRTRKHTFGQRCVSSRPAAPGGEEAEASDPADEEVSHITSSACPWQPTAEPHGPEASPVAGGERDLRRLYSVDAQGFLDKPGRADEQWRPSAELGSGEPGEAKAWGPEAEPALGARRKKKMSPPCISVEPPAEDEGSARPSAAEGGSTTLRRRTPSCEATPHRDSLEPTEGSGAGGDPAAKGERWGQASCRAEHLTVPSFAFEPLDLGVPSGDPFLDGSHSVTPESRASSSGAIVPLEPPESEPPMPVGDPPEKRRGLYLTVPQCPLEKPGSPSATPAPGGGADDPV
Trypsin, sequence (P00761 whole entry): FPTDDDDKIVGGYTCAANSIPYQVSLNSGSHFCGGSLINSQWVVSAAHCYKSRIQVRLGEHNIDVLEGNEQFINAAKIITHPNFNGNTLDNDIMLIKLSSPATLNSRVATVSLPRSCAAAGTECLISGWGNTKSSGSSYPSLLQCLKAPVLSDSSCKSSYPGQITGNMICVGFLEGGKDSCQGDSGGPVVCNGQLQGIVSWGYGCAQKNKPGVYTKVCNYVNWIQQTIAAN
Cytochrome P450 2D6, sequence (P10635 whole entry): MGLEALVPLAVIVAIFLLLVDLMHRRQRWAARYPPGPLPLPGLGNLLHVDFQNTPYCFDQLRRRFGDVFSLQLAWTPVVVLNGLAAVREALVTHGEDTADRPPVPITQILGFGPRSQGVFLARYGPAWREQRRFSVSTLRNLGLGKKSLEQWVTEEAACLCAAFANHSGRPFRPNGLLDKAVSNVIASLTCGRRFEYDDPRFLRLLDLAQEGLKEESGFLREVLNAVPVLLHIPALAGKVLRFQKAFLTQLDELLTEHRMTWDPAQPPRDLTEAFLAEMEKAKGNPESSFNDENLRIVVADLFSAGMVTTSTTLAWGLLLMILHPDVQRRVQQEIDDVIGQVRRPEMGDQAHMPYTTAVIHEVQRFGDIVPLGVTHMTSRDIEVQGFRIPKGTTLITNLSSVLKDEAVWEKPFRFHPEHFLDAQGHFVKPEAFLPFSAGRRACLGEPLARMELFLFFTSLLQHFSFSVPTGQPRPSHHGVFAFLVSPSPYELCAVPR
Large T antigen, sequence (P03070 whole entry): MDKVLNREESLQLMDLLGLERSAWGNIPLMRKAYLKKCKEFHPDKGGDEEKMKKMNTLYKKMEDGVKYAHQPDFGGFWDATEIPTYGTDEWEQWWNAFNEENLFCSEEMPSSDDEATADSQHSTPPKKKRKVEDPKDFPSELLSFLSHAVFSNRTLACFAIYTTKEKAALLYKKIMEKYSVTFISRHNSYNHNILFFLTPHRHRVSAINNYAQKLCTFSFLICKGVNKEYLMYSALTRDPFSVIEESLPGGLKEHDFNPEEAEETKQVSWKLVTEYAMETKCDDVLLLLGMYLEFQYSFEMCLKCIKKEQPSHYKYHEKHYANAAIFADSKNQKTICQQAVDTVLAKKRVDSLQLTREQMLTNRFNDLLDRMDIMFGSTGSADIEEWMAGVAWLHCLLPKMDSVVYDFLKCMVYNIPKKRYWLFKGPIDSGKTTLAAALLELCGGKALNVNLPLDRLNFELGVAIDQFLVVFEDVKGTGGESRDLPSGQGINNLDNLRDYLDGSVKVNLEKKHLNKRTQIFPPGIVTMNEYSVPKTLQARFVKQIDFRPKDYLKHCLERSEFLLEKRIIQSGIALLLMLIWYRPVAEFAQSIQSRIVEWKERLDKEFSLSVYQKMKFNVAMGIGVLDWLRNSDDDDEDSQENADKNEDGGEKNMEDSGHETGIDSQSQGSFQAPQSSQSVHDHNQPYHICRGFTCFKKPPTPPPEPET

- AC50 [2]: 9.6 µM (active)
SMILES: CN1C(=O)c2ccccc2N(C)C1c1ccccc1Cl (centres undefined)

- EC50 [3]: > 79.4 µM (not active)
- EC50 [4]: > 79.4 µM (inactive)
- EC50 [5]: > 79.4 µM (not active)
- IC50 [6]: 38.8 µM (active)
SMILES: O=c1oc2cc(O)ccc2c2ccccc12

- AC50 [7]: inconclusive
- AC50 [8]: 10 µM (inconclusive)
SMILES: COc1ccc(C(=O)CN(C(=O)c2ccc(Cl)cc2)N2C(=O)c3ccccc3C2=O)cc1

- IC50 [11]: 0.23 µM (active)
- IC50 [13]: > 100 µM (inactive)
SMILES: Cc1cc(O)oc2nnc(-c3ccccc3)c1-2
- CC50 [12]: 34.3 µM (active)

Second part, the compound before the results:

SMILES: CCCn1c(N2CCN(CC(=O)Nc3ccc4c(c3)OCCO4)CC2)nc2ccccc21
- EC50 [1]: 3.84 µM (active)

SMILES: O=C(NCc1ccc2c(c1)OCO2)c1cc(-n2cnnc2)ccc1Cl
- IC50 [9]: 2.44 µM (active)
- IC50 [10]: 1.64 µM (active)

SMILES: Cc1nccn1CC(=O)c1ccc(O)c(O)c1
- AC50 [14]: 4.4 µM (active)
- IC50 [11]: 59.6 µM (active)
- IC50 [13]: 2.37 µM (active)

SMILES: O=C(NCCc1ccc(O)c(O)c1)C1CCCO1 (centres undefined)
- IC50 [11]: > 100 µM (inactive)
- IC50 [13]: 44.4 µM (active)

SMILES: CC1CCN(C(=O)c2ncn(C)c2C(=O)N2CCC(C)CC2)CC1
- IC50 [9]: 2.83 µM (active)
- IC50 [10]: 2.34 µM (active)

SMILES: Cc1cc(OCC(=O)N2CCC(C(N)=O)CC2)c2c3c(c(=O)oc2c1)CCCC3
- IC50 [15]: > 80 µM (inactive)

SMILES: CCCNC(=O)c1ccc(N2CCC3(CC2)CC(c2cccc(Br)c2)=NO3)c(NC(=O)c2ccc(Cl)c([N+](=O)[O-])c2)c1
- IC50 [15]: > 80 µM (inactive)

SMILES: CN(C)S(=O)(=O)c1ccc(C(=O)NCC[N+]2(C)CCCCCC2)o1
- IC50 [9]: 4.08 µM (active)
- IC50 [10]: 1.89 µM (active)
